# Results reported in article PMC3477601 (Bioorganic & medicinal chemistry letters, 2012).
# “And” between values parts separate entries of the source, which are not always exact repeats. Equal values may be shown once. Read-outs that look alike come from different tables or passages of the source.
# What was measured:
# PPAR-α [1] = target: T1, PPAR-α (Mus musculus, UniProt P23204); conditions: dynamic PET 0–60 min post iv injection
# PPAR-α [2] = target: T1, PPAR-α; conditions: post-PET
# [3] = PPAR-α overexpressing transgenic mice
# T1 sequence (P23204 whole entry): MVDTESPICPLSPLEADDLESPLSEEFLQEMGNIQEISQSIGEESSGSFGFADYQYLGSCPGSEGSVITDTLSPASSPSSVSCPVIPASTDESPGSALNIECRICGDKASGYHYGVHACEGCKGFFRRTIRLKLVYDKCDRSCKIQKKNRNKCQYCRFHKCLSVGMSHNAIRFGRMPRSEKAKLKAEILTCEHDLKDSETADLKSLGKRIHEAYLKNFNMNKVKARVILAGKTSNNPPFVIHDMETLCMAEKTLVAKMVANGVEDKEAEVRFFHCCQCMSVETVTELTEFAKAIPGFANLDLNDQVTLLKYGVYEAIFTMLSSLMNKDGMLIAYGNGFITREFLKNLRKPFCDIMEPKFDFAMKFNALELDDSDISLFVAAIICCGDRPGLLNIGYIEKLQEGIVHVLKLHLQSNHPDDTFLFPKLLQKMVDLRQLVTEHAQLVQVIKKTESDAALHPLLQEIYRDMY
smiles,measurement,setting,value
CC(C)(Sc1ccc(CCN(CCCCC2CCCCC2)C(=O)Nc2ccc(O[11CH3])cc2)cc1)C(=O)O [[^11C]KSM-01],Standard uptake value (SUV),PPAR-α [1]; [3],0.68±0.007
same,Standard uptake value (SUV),PPAR-α [1]; control (wild-type) mice,0.37±0.09
same,Cardiac tissue uptake,PPAR-α [2]; [3],1.09 ± 0.246 %ID/g
same,Blood uptake,PPAR-α [2]; TG (male MHC PPAR-α overexpressing transgenic mice),0.42±0.14 %ID/g
same,Kidney uptake,PPAR-α [2]; TG,2.58±0.56 %ID/g
same,Liver uptake,PPAR-α [2]; TG,55.031 ± 4.926 %ID/g
same,Lung uptake,PPAR-α [2]; TG,2.65±0.34 %ID/g
same,Muscle uptake,PPAR-α [2]; TG,0.36±0.15 %ID/g
same,Spleen uptake,PPAR-α [2]; TG,1.33±0.29 %ID/g
same,Blood uptake,PPAR-α [2]; WT (wild type mice),0.42±0.10 %ID/g
same,Liver uptake,PPAR-α [2]; WT,60.699 ± 0.774 %ID/g and 60.69±0.77 %ID/g
same,Lung uptake,PPAR-α [2]; WT,2.11±0.31 %ID/g
same,Muscle uptake,PPAR-α [2]; WT,0.35±0.18 %ID/g
same,Spleen uptake,PPAR-α [2]; WT,1.55±0.14 %ID/g
same,Cardiac tissue uptake,PPAR-α [2]; wild type littermates,0.479 ± 0.007 %ID/g
